Results taken from ChEMBL document CHEMBL1201862, “PubChem BioAssay data set” (2004).
Active and inactive are the calls of the source.

Key:
cells = assay type: functional
Leucine aminopeptidase = molecular target: T1, Leucine aminopeptidase (Plasmodium falciparum 3D7, UniProt Q8IL11); test: P. falciparum M17LAP inhibitors, primary screen, biochemical, fluorogenic H-Leu-NHMec substrate, 1536-well (AID 1619); assay type: functional
T1 sequence (Q8IL11 whole entry): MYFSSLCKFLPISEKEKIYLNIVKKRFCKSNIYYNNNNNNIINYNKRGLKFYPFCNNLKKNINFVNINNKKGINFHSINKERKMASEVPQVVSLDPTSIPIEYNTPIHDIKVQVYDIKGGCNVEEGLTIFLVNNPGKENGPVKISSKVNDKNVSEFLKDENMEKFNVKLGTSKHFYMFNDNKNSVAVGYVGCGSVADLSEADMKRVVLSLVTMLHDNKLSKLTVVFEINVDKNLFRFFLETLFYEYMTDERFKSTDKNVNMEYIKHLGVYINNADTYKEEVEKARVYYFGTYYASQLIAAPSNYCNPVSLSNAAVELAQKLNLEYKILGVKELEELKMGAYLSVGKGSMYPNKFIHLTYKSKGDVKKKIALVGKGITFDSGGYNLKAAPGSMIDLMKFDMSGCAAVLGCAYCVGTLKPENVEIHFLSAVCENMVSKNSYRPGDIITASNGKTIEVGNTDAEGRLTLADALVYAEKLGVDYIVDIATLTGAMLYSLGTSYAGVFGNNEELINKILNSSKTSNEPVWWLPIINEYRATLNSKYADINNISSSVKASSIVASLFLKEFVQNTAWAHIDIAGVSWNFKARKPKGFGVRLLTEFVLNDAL

[1] = molecular target: Induced myeloid leukemia cell differentiation protein Mcl-1 (Homo sapiens, UniProt Q07820); assay type: functional
Cytochrome P450 3A4 = Cytochrome P450 3A4 (Homo sapiens, UniProt P08684); details: Potency;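 note: confirmatory qHTS run detecting inhibitors and substrates of CYP3A4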
[2] = molecular target: Eukaryotic translation initiation factor 4E (Mus musculus, UniProt P63073); test: blockers of eIF4G binding by eIF4E – biochemical, TR-FRET, dose response (AID 855); assay type: functional;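 note: potency for disrupting eIF4E binding to eIF4GI seen as loss of FRET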
[3] = molecular target: T2, G-protein coupled receptor 55 (Homo sapiens, UniProt Q9Y2T6); test: inhibition of LPI-stimulated GPR55 beta-arrestin translocation – imaging, U2OS, beta-arrestin-GFP, LPI agonist, primary screen (AID 2013); assay type: functional;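 note: antagonist potency measured as reduced agonist-driven arrestin aggregation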
[4] = molecular target: T2, G-protein coupled receptor 55; test: selective activators of receptor GPR55 – imaging, U2OS cells, beta-arrestin-GFP redistribution, primary screen (AID 1961); assay type: functional
Streptococcus = test: GAS UMAA2166 growth inhibition – luminescence, BacTiterGlo, counter-screen for streptokinase expression inhibitor project, dose response (AID 1915); assay type: functional, organism-based;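 note: potency for reduction of bacterial viability or growth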
[5] = molecular target: Transitional endoplasmic reticulum ATPase (Homo sapiens, UniProt P55072); test: p97 ATPase inhibitors, dose response, biochemical (AID 1534)
[6] = NIH-3T3 fibroblast cytotoxicity, dose response, cytotoxicity control, cell-based, fluorescence, Alamar Blue, secondary assay (AID 2327); assay type: functional;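 note: NIH-3T3 mouse fibroblasts cultured with fluconazole at 8 µg/mL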
Streptokinase A = molecular target: T3, Streptokinase A (Streptococcus pyogenes serotype M1, UniProt P10520); test: viability-normalized secreted streptokinase activity reduction – plasminogen activation absorbance, OD405, dose response (AID 1914); assay type: functional, Streptococcus pyogenes M1 GAS;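 note: secreted streptokinase activity via plasminogen activation per viability signal from cell pellet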
T3 sequence (P10520 whole entry): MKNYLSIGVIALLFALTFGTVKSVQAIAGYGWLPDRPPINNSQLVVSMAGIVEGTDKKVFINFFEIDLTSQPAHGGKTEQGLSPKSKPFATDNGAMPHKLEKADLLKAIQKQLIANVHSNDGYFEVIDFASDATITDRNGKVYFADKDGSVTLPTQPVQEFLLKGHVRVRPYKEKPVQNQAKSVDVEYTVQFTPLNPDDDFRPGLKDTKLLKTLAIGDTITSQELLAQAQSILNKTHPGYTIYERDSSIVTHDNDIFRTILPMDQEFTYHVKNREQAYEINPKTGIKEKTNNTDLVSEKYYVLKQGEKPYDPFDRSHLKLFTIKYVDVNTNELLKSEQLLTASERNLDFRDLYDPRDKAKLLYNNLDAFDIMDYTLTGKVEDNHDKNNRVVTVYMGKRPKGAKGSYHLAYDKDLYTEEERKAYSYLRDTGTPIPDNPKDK

[7] = molecular target: Transitional endoplasmic reticulum ATPase (Homo sapiens, UniProt P55072, C522A); test: C522A mutant p97 ATPase inhibitors, dose response, counter-screen for p97 inhibitor project, biochemical, luminescence (AID 1544)
[8] = fluconazole-exposed Candida albicans growth modulators – fluorescence, retest, confirmation (AID 2467); assay type: functional, cell-based
[9] = tested on: Streptococcus sp. 'group A'; test: Streptococcus pyogenes SK(-)GAS viability under kanamycin – luminescence, BacTiterGlo, confirmation, counter-screen for streptokinase expression inhibitor project, dose response (AID 1900); assay type: functional, organism-based
[10] = molecular target: Alkaline phosphatase, placental type (Homo sapiens, UniProt P05187); test: human placental alkaline phosphatase inhibition – biochemical, luminescence, confirmation (AID 1512); assay type: functional
[11] = non-specific 3'UTR reporter inhibition in Clone20-Shn3RL – cell-based, Renilla luciferase, cherry-picked, counter-screen for Shn3 inhibitor project, dose response (AID 624133); assay type: functional
[12] = reduction of Shn3 3'UTR-driven luciferase in osteoblasts – cell-based, Clone20 osteoblasts, firefly luciferase, cherry-picked, dose response (AID 624132); assay type: functional;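 note: firefly luciferase luminescence from reporter carrying the Shn3 3'UTR in osteoblasts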
[13] = HPDE-C7 pancreatic duct cell viability loss – fluorescence, HTS (AID 430); assay type: functional, cell-based; details: Homo sapiens
[14] = microbe, parasite or virus in culture; assay type: functional; details: Mycobacterium tuberculosis
[15] = HIV-1 AD8 envelope cell-cell fusion blockers – cherry-pick, dose response (AID 652062); assay type: functional, cell-based;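 note: luciferase signal from cell-cell fusion driven by HIV-1 clade B AD8 Env; potency is for inhibitors of fusion seen as a drop in luminescence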
[16] = blockers of HIV-1 ZM109 envelope-driven cell-cell fusion – HeLa effector, CEM target cells, luciferase, cherry-pick, dose response (AID 652058); assay type: functional, cell-based;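 note: luciferase signal from HIV-1 Env mediated cell-cell fusion of effector and target cells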
[17] = viability loss in CEM21 cells – cell-based, CellTiter-Glo luminescence, cherry-picked, cytotoxicity control for viral fusion inhibitor project, dose response (AID 652042); assay type: functional;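 note: potency for signal decrease meaning cytotoxicity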
[18] = loss of viability in HepG2 cells – cell-based, CellTiter-Glo, cherry-picked, cytotoxicity control for Shn3 inhibitor project, dose response (AID 624134); assay type: functional
HEK293 = test: EBV LMP1 TES2 canonical NF-kB signalling blockers – cell-based, HEK293, luciferase, cherry-pick, dose response (AID 588343); assay type: functional; details: Homo sapiens
[19] = blockers of HIV-1 envelope-mediated cell-cell fusion – cherry-pick, dose response (AID 652057); assay type: functional, cell-based
[20] = viability loss of HPDE-C7K cells – cell-based, fluorescence, HTS, primary screen (AID 431); assay type: functional; details: Homo sapiens
[21] = molecular target: DNA dC->dU-editing enzyme APOBEC-3G (Homo sapiens, UniProt Q9HC16); test: Dose Response confirmation of small molecule APOBEC3G DNA Deaminase Inhibitors via a fluorescence-based single-stranded DNA deaminase assay. [Related pubchem assays (depositor defined):AID493012, AID493028]; assay type: functional
[22] = molecular target: Glucose-6-phosphate 1-dehydrogenase (Homo sapiens, UniProt P11413); test: inhibition of Homo sapiens G6PD, dose series – biochemical, fluorescence, selectivity assay for P. falciparum G6PD inhibitor project, dose response (AID 504792); assay type: functional
[23] = molecular target: DNA dC->dU-editing enzyme APOBEC-3A (Homo sapiens, UniProt P31941); test: A3A deaminase inhibition for selectivity – biochemical, dose response (AID 504722); assay type: functional
[24] = molecular target: T4, Rac GTPase-activating protein 1 (Homo sapiens, UniProt Q9H0H5); test: blockers of MgcRacGAP-driven Rac1 GTP hydrolysis – biochemical, ADP Hunter fluorescence, primary and confirmatory, confirmation (AID 624330); assay type: functional
T4 sequence (Q9H0H5 whole entry): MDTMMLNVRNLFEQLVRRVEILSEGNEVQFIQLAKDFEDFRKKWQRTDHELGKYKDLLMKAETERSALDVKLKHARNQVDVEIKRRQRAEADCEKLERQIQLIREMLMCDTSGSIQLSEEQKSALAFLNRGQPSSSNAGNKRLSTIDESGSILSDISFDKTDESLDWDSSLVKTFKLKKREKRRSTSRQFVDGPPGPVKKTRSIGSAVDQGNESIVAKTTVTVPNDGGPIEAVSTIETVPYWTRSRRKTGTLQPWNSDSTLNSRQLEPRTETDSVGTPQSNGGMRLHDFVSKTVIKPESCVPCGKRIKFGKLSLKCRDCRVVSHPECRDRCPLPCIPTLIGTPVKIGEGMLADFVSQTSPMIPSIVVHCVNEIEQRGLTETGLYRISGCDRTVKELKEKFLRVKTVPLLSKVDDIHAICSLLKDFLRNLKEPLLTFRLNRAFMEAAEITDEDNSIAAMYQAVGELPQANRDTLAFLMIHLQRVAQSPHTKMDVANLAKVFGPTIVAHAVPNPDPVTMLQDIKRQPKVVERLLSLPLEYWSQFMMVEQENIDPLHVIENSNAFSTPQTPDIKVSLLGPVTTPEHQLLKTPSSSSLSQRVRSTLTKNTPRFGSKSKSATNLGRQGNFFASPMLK

[25] = molecular target: FAD-linked sulfhydryl oxidase ALR (Homo sapiens, UniProt P55789); test: ALR-catalysed DTT oxidation blockers – biochemical, H2O2 detection, luminescence, cherry-pick, dose response (AID 493248)
Sequence of FAD-linked sulfhydryl oxidase ALR (P55789 whole entry): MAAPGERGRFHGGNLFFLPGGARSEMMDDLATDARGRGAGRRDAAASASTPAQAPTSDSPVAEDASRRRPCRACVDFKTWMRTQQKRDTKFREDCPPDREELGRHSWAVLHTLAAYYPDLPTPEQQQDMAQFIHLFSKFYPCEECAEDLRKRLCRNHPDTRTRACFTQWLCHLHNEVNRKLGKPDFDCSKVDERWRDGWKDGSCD

Sequence of Cytochrome P450 3A4 (P08684 whole entry): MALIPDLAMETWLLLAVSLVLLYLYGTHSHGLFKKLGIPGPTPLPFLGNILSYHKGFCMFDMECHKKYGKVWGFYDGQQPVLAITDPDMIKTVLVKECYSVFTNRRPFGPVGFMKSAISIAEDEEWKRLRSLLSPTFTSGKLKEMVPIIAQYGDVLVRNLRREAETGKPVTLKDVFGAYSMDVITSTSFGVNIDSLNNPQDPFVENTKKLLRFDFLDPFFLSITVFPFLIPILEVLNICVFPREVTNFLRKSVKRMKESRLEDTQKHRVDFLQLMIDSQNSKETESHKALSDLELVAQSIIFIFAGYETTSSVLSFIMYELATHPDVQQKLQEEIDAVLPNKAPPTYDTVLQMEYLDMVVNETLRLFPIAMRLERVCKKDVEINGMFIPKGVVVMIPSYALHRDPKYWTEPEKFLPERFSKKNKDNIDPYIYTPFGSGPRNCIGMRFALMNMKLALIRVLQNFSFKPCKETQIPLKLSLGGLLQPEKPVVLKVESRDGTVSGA
T2 sequence (Q9Y2T6 whole entry): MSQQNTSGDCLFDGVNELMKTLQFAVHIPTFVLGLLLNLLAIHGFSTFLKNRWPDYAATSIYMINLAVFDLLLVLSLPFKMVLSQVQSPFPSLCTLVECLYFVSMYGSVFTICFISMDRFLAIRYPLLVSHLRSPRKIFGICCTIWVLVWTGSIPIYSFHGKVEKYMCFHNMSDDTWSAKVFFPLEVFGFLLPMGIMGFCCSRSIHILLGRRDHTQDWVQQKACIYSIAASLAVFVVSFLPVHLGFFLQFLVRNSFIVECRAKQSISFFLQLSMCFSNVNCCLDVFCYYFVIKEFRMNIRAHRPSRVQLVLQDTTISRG
Sequence of DNA dC->dU-editing enzyme APOBEC-3A (P31941 whole entry): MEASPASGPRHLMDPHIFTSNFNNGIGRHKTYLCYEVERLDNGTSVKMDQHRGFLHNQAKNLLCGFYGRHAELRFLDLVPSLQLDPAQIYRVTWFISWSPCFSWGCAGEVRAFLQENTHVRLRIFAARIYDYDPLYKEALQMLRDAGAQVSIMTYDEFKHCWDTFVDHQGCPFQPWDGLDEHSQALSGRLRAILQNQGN
Sequence of DNA dC->dU-editing enzyme APOBEC-3G (Q9HC16 whole entry): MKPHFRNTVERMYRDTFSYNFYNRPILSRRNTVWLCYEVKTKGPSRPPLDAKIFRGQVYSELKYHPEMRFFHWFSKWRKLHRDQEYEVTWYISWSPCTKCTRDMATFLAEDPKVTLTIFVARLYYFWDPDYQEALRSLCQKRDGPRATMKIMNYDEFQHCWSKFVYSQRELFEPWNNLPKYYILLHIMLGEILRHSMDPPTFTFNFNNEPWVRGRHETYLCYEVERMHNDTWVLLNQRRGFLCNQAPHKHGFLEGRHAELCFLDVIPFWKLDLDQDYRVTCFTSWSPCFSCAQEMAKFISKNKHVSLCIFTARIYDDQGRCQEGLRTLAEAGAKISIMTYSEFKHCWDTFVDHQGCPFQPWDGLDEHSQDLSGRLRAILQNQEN
Sequence of Eukaryotic translation initiation factor 4E (P63073 whole entry): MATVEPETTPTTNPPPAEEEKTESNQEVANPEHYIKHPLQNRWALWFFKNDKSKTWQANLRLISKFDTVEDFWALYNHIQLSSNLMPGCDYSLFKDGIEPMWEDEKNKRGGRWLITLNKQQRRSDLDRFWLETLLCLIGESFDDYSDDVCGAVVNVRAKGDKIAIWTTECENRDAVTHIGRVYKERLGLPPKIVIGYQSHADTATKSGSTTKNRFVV
Sequence of Transitional endoplasmic reticulum ATPase (Homo sapiens, UniProt P55072, C522A) (P55072 2-806 C522A limits assumed): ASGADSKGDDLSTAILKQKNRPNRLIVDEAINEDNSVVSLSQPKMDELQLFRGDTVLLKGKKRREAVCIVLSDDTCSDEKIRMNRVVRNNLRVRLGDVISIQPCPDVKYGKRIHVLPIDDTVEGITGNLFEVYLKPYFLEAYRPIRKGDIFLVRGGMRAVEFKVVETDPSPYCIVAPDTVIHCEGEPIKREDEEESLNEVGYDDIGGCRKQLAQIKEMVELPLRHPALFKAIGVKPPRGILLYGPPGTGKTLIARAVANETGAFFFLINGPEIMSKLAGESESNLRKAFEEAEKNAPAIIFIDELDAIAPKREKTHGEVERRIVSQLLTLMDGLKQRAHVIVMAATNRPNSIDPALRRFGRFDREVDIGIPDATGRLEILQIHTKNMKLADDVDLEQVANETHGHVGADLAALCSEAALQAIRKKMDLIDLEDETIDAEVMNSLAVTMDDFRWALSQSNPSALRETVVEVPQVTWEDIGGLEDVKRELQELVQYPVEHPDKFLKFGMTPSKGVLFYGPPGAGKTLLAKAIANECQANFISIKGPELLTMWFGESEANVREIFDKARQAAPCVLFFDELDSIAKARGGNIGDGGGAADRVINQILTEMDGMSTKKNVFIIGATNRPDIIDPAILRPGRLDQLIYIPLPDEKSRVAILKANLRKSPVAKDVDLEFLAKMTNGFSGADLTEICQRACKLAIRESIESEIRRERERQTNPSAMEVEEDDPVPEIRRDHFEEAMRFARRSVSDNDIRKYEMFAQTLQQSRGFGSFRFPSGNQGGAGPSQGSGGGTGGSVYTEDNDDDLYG
Sequence of Glucose-6-phosphate 1-dehydrogenase (P11413 whole entry): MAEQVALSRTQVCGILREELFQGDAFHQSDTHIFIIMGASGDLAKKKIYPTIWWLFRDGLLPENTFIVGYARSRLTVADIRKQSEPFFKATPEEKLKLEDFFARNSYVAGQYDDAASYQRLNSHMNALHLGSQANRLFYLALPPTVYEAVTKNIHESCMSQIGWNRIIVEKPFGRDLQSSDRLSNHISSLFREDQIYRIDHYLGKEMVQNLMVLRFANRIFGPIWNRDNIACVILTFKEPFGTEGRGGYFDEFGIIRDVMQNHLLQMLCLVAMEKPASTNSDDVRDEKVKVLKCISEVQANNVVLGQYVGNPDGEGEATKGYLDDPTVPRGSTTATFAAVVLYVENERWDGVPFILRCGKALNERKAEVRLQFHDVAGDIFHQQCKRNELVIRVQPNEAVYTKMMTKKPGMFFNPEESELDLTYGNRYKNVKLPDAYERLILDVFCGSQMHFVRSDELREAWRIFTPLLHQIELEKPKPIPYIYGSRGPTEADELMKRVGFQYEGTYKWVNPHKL
Sequence of Alkaline phosphatase, placental type (P05187 whole entry): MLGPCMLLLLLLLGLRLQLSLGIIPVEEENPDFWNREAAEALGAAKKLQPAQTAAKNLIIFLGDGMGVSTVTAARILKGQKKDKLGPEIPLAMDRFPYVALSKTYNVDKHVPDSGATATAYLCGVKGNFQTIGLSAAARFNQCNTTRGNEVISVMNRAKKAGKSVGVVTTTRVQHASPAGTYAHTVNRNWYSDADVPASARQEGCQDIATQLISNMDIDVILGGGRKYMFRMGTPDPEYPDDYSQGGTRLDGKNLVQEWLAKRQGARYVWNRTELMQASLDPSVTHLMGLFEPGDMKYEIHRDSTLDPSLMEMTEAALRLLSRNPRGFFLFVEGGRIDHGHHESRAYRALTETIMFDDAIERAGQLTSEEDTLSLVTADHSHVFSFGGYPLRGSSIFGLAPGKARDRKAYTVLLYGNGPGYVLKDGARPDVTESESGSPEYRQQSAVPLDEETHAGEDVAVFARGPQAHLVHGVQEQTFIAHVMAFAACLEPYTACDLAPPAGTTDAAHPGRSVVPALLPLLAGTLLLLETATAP
Sequence of Induced myeloid leukemia cell differentiation protein Mcl-1 (Q07820 whole entry): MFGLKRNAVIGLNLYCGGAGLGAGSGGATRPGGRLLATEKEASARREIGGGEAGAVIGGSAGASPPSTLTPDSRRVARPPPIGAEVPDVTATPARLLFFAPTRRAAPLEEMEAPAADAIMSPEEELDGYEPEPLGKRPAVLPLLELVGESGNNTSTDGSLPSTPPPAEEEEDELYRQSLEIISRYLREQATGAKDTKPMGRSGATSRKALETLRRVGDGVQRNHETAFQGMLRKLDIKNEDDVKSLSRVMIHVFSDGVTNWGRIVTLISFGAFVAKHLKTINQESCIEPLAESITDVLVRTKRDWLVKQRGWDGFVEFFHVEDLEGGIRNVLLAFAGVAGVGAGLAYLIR
Sequence of Transitional endoplasmic reticulum ATPase (Homo sapiens, UniProt P55072) (P55072 whole entry): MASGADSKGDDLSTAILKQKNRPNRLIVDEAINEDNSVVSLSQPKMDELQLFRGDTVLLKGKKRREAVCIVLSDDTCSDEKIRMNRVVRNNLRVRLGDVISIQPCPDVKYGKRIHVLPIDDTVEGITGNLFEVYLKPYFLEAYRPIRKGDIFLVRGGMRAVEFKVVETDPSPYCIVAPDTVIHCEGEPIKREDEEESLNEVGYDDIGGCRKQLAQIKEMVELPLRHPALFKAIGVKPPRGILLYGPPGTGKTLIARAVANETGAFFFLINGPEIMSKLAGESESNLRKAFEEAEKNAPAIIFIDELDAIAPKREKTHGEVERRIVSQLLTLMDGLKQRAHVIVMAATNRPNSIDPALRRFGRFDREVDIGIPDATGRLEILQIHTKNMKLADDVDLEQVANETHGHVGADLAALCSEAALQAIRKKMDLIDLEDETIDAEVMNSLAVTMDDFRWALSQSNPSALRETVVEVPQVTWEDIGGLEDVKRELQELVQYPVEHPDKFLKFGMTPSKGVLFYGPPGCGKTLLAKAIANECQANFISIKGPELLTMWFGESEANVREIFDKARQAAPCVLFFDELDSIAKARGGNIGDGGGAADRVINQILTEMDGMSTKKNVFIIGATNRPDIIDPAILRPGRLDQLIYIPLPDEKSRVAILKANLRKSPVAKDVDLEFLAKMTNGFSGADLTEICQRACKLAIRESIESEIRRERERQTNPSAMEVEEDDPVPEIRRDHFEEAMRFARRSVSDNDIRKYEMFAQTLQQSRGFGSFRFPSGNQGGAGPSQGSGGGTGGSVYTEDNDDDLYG

SMILES: Cc1cccc(OC(=O)c2ccc3nccnc3c2)c1
- IC50 (cells): 9.63 µM (active)

SMILES: O=C(CC(Nc1cccc(Cl)c1Cl)C(=O)O)c1ccccc1 (configuration not stated)
- IC50 (Leucine aminopeptidase): 14.2 µM (active)

SMILES: NC(=O)c1c(Nc2nc3c(F)cccc3s2)sc2c1CCCC2
- IC50 (Leucine aminopeptidase): 81.8 µM (active)
- IC50 [1]: 2.76 µM (active)

SMILES: CCN1CCCC1Cn1c(-c2ccccc2)nc2c(N3CCOCC3)nc(C)nc21 (configuration not stated)
- AC50 (Cytochrome P450 3A4): 12.6 µM (inconclusive)

SMILES: CCOC(=O)/C(C#N)=C/c1ccc(OC(=O)c2ccccn2)cc1
- IC50 [2]: > 64 µM (inactive)

SMILES: COc1ccc(C23CC4CC(CC(C4)C2)C3)cc1C(=O)NCCN(C)C
- IC50 [3]: 1.37 µM (active)

SMILES: N#CC1=C(S)N(c2ccccc2)C(c2ccc(-c3cc(Cl)ccc3Cl)o2)NC1=O (configuration not stated)
- EC50 [4]: > 32 µM (inactive)

SMILES: COc1ccc(-c2c(-c3ccc(OCC(=O)NN)cc3O)n[nH]c2C(F)(F)F)cc1
- IC50 [3]: 2.75 µM (active)

SMILES: COc1ccc(SC[C@H](CC(C)C)N2CCN(CCc3ccccc3)CCC2=O)cc1
- EC50 [4]: 10.8 µM (inactive)

SMILES: Cc1ccc(SC/C(O)=C(\C#N)c2nc3ccccc3s2)cc1
- EC50 (Streptococcus): 7.74 µM (active)
- IC50 [5]: > 50 µM (not active)
- EC50 [6]: 138 µM (active)
- EC50 (Streptokinase A): > 150 µM (not active)
- IC50 [7]: > 50 µM (not active)
- EC50 [8]: 0.425 µM (active)
- EC50 [9]: 2.95 µM (active)

SMILES: O=C(NNC(=S)NC(=O)c1ccccc1[N+](=O)[O-])c1ccccc1[N+](=O)[O-]
- IC50 [10]: > 100 µM (inactive)

SMILES: O=C(O)c1cc(NS(=O)(=O)c2ccc(NC3CCCCC3)c([N+](=O)[O-])c2)cc(C(=O)O)c1
- IC50 [3]: 5.62 µM (active)

SMILES: COC(=O)[C@@H]1C[C@@]2(O)[C@H](O)[C@H](O)[C@H](O)C[C@H]2N1Cc1ccc(C(F)(F)F)cc1
- AC50 (Cytochrome P450 3A4): 20 µM (inconclusive)

SMILES: Cc1ccc2[nH]c3c(N4CCN(Cc5ccccc5)CC4)ncnc3c2c1
- AC50 [11]: 20.3 µM (active)
- AC50 [12]: 4.18 µM (active)
- EC50 [13]: 14.1 µM (active)
- CC50 [14]: 35.2 µM (active)
- AC50 [15]: 19.5 µM (active)
- AC50 [16]: 0.671 µM (active)
- AC50 [17]: 26.2 µM (active)
- AC50 [18]: 30.8 µM (active)
- AC50 (HEK293): 11.8 µM (active)
- AC50 [19]: 8.98 µM (active)
- EC50 [20]: 16.8 µM (active)

SMILES: Cc1ccc(NC(=O)Cn2sc3nc(C)cc(C)c3c2=O)c(Cl)c1
- IC50 [21]: 4.88 µM (active)
- IC50 [22]: 30.5 µM (inactive)
- IC50 [23]: > 100 µM (inactive)

SMILES: CC(NC(=O)COc1ccc(-c2ccccc2)cc1)C1CCCO1 (configuration not stated)
- IC50 (cells): 45.6 µM (active)

SMILES: COC(=O)c1ccc(Cn2cc(C(F)(F)F)cc([N+](=O)[O-])c2=O)cc1
- IC50 (cells): 1.28 µM (active)

SMILES: O=P(NS(=O)(=O)c1ccc(Br)cc1)(Oc1ccccc1)Oc1ccccc1
- IC50 (Leucine aminopeptidase): 30.1 µM (active)

SMILES: CCOC(=O)COc1ccc(C(=O)c2ccccc2)c(O)c1
- IC50 (cells): 3.02 µM (active)

SMILES: Cc1ccc(/C=N/n2c(S)nnc2-c2cccnc2)s1
- IC50 [21]: 2 µM (active)
- IC50 [24]: 53.9 µM (active)
- IC50 [23]: > 100 µM (inactive)
- AC50 [25]: 2.34 µM (active)

SMILES: COc1ccc(/C=N/NC(=O)c2cc(C34CC5CC(CC(C5)C3)C4)[nH]n2)cc1OC
- IC50 [3]: 2.74 µM (active)

SMILES: COc1ccc(-c2csc3nc(-c4ccccc4OC)oc(=O)c23)cc1
- EC50 [4]: 25 µM (inactive)
- CC50 [14]: 30.8 µM (active)

SMILES: CC(=O)Oc1ccc2c(c1)CCC1C2CC[C@]2(C)C(OC(C)=O)CCC12 (some centres not stated)
- AC50 (Cytochrome P450 3A4): 31.6 µM (inconclusive)

SMILES: CCc1ccc(-c2nn(Cc3ccccc3)cc2/C=C/C(=O)O)cc1
- IC50 (Leucine aminopeptidase): 31.5 µM (active)
